Where “and” joins values, the source holds several entries; their conditions need not be identical. Identical values can stand only once.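 Cultured in 96-well plates, cells were exposed to test compound for 48 hours across five concentrations. GI50 marks 50% less growth. TGI: total growth inhibition.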
Experiments:
Experiment in all cases: DTP human tumour cell line panel, 48 h
[1] = system: OVCAR-3 ovarian
[2] = system: UACC-62 melanoma
[3] = system: MOLT-4 leukemia
[4] = system: SNB-19 CNS
[5] = system: NCI-H226 lung
[6] = system: CCRF-CEM leukemia
[7] = system: HT29 colon
[8] = system: M14 melanoma
[9] = system: HOP-62 NSCLC
[10] = system: RPMI-8226 leukemia

Compound	TGI [1] [µM]	TGI [2] [µM]	TGI [3] [µM]	TGI [4] [µM]	TGI [5]	TGI [6]	TGI [7] [µM]	TGI [8] [µM]	TGI [9]	TGI [10] [µM]	GI50 [1]	GI50 [2]	GI50 [4]	GI50 [5] [µM]	GI50 [8] [µM]	GI50 [7]	GI50 [9] [µM]	GI50 [6]	GI50 [10] [µM]	GI50 [3]
C[C@H]1CCC2C(CN3CCCCC3)C(=O)OC2[C@]2(C)C(=O)CC(N3CCCCC3)C12O (some centres undefined)	14.7	5.92	10.9	73	6.73 µM	10.1 µM	16.4													
COC(=O)[C@H](C)[C@@H]1CC[C@](C)(CCC2=C(C)CCCC2(C)C)OO1	> 25	> 25	> 25	> 25		> 25 µM	> 25	> 25	> 25 µM	> 25										
O=C1CCCCCCCCCCOC(=O)CCCCCCCCCCO1	> 100	> 100		> 100	> 100 µM	> 100 µM	> 100	> 100	> 100 µM											
C=C(C)[C@@H]1CC[C@]2(C(=O)N3CCN(C)CC3)CC[C@]3(C)[C@H](CC[C@@H]4[C@@]5(C)CC[C@H](O)C(C)(C)[C@@H]5CC[C@]43C)[C@@H]12	3.49	3.3		3.92	5 µM		3.09	3.76	3.75 µM		1.9 µM	1.72 µM	1.83 µM	2.07	1.89	1.41 µM	1.91			
O=c1[nH]c(-c2ccc([N+](=O)[O-])cc2)nc2ccc(Cl)cc12		> 100	> 100	> 100			> 100			> 100										
NNc1ncnc2cccc(Cl)c12	> 100	> 100	> 100	> 100	> 100 µM	> 100 µM	> 100	> 100	> 100 µM											
C1=CC(=NN=P(c2ccccc2)(c2ccccc2)c2ccccc2)C=C1	> 100	> 100	> 100	> 100		> 100 µM	> 100	> 100	> 100 µM	> 100										
C=CNC(=S)n1nc(-c2ccccc2NC(=O)C(F)(F)F)c(=O)n(C(=S)NC=C)c1=S	28.8	> 100	> 100	> 100	86.6 µM	> 100 µM	60.1	> 100	86 µM											
C/C(CC(=O)Nc1ccc([N+](=O)[O-])cc1)=N\Nc1ccc([N+](=O)[O-])cc1[N+](=O)[O-]	> 100	> 100	> 100		> 100 µM	> 100 µM	> 100	> 100	> 100 µM	> 100										
CCN(CC)CCNC(=O)C(Cl)=C1C(Cl)=C(Cl)C(Cl)=C1Cl	7.45	12.4		29.6	35.8 µM	> 100 µM	12.2		15.5 µM	10.8	2.45 µM	2.18 µM	10.9 µM	4.08		3.49 µM	3.94	3.15 µM	3.02	
O=C(O)CCCc1cc2c(s1)-c1cccc3cccc-2c13	49.5	47.2	60.8	> 100	> 100 µM		> 100	> 100	> 100 µM	72.5										
CCOC(=O)Cn1c(=O)[nH]c(=O)c2[nH]cnc21	> 100	> 100	> 100	> 100		> 100 µM	> 100	> 100	> 100 µM											
CSCC(COC(C)=O)(CSC)c1ccncc1	> 100	> 100	> 100	> 100		> 100 µM	> 100	> 100	> 100 µM	> 100										
O=C(CC(=O)N1N=C(c2ccccc2)C(N=Nc2ccccc2Cl)C1=O)Nc1ccccc1Cl (centres undefined)	81.3	> 100	> 100	> 100	> 100 µM		44.6	> 100	> 100 µM	57.2										
O=C(Nc1ccc(Cl)cc1)c1cc2ccccc2cc1OP(=O)(O)O	11.2	> 100	> 100		16.9 µM	> 100 µM	> 100	56.6	17 µM	6.02	3.22 µM	2.66 µM		2.97	3.74	28.9 µM	3.57	2.82 µM	1.52	24.8 µM
O=C(O)c1c[nH]c2c(ccc3[nH]cc(C(=O)O)c(=O)c32)c1=O	> 100	> 100	> 100	> 100	> 100 µM		> 100	> 100	> 100 µM	> 100										
COC1C(C)OC(OC2CC(C)(O)Cc3cc4c(c(O)c32)C(=O)c2c(O)cc3c(c2C4=O)OC2OC3(C)C(O)C(N(C)C)C2O)C(OC)C1(C)OC (centres undefined)					0.395 µM and 0.113 µM	0.872 µM and 1.32 µM			0.921 µM and 0.347 µM		0.104 µM and 0.0376 µM	0.00441 µM and 0.0312 µM	0.055 µM and 0.0181 µM	0.0198	0.141	0.00453 µM and 0.0379 µM		0.0584 µM and 0.0612 µM		0.0366 µM and 0.02 µM
COc1cc(-c2ccc(=O)oc2C#Cc2ccccc2)cc(OC)c1OC	> 100	> 100	> 100	93.3	> 100 µM		> 100	> 100	66.8 µM		36.4 µM	11.6 µM	29.9 µM	22.8	48.9	16.6 µM	19			13.2 µM
ClCc1ccc(-c2ccc(Cn3cnc4c(Cl)ncnc43)cc2)cc1	3.8	3.44	> 100	8.1	3.89 µM	> 100 µM		11.8	3.63 µM	4.87	1.83 µM	1.58 µM	2.59 µM	1.81	2.69		1.84	2.58 µM	2.05	1.79 µM

Compound	TGI [1] [µM]	TGI [2] [µM]	TGI [3] [µM]	TGI [4] [µM]	TGI [5]	TGI [6]	TGI [7] [µM]	TGI [8] [µM]	TGI [9]	TGI [10] [µM]	GI50 [1]	GI50 [2]	GI50 [4]	GI50 [5] [µM]	GI50 [8] [µM]	GI50 [7]	GI50 [9] [µM]	GI50 [6]	GI50 [10] [µM]	GI50 [3]
O=C(O)C1C2CCC(O2)C1C(=O)NCc1cccnc1 (centres undefined)	> 100	> 100		> 100		> 100 µM	> 100	> 100	> 100 µM	> 100										
Cc1cc2c(C)nn(Cc3ccccc3Cl)c2c(C#N)c1C	> 100	> 100	> 100	> 100	> 100 µM	> 100 µM	> 100		> 100 µM	> 100										
CS(=O)(=O)c1ccc(-c2cnc(NCc3ccco3)n3cnnc23)cc1	> 100		> 100	> 100	> 100 µM	> 100 µM	> 100	> 100	> 100 µM	> 100	> 100 µM		> 100 µM	49	27	28.8 µM	> 100	38 µM	53.3	37.4 µM
C1C[S][Ge]2([S]CCS1)[S]CCSCC[S]2		> 100	> 100		> 100 µM	> 100 µM		> 100	> 100 µM	> 100		> 100 µM		> 100	> 100		> 100	> 100 µM	> 100	> 100 µM
COc1cc(/C=C2\CC3C4CCC5=CC(=O)CC[C@]5(C)C4CC[C@]3(C)C2=O)ccc1OCCN1CCCCC1 (some centres undefined)	4.59	5.84	75.2	31	21.1 µM		64.8	3.46	6.66 µM	5.05	1.83 µM	2.39 µM	6.16 µM	5.24	1.87	3.37 µM	2.36		1.88	2.73 µM
Cc1cc(C)c(C2=NO[C@@H]3C(=O)N(c4ccc(Cc5ccc(N6C(=O)[C@H]7C(c8c(C)cc(C)cc8C)=NO[C@H]7C6=O)cc5)cc4)C(=O)[C@H]23)c(C)c1	> 100	> 100	> 100		> 100 µM	> 100 µM	> 100	> 100	> 100 µM	> 100										
CCOC(=O)CP(=S)(S)c1ccccc1 (centres undefined)		> 100	> 100	> 100	> 100 µM	> 100 µM	> 100		> 100 µM											
COC(=O)C1=Cc2cn(S(=O)(=O)c3ccc(C)cc3)c3cccc(c23)C(C=C(C)C)N1C(C)=O (centres undefined)	> 100	> 100	44.9	> 100	> 100 µM	77.4 µM	> 100	> 100	> 100 µM											
CN(CCCCN)c1ccc2c(=O)[nH][nH]c(=O)c2c1	> 100	> 77	> 100		> 100 µM	> 100 µM	> 100	> 100	> 100 µM	> 100										
CN1c2ccccc2S(=O)(=O)n2c(COc3ccccc3)nnc21	> 100	> 100	> 100	> 100	> 100 µM	> 100 µM	> 100	> 100	> 100 µM											
O=C(NCCCl)NCc1ccccc1	> 100	> 100	> 100	> 100	> 100 µM	> 100 µM	> 100		> 100 µM	> 100										
CNC(=O)c1cc(Oc2ccc3nc(NC(=O)Nc4cc(C(F)(F)F)cc(C(F)(F)F)c4)sc3c2)ccn1	2.27	2.1		4.43	3.57 µM	5.83 µM	2.73	3.22	2.8 µM	3.81	1.03 µM	0.583 µM	1.34 µM	1.45	1.5	1.21 µM	1.15	1.07 µM	1.02	
COc1cc(OC)c(/C=C/C(=O)c2c(O)cc(OC)c(C3CCN(C)CC3)c2OC)c(OC)c1	3.32		3.61	3.81		2.78 µM	1.5	3.05	3.16 µM	2.83	1.81 µM		1.78 µM		1.67	0.421 µM	1.73	1.18 µM	1.11	1.63 µM
CC(C)(N)C(=O)N[C@@H]1C(=O)N2[C@@H]1SC(C)(C)[C@@H]2C(=O)O	> 100	> 100		> 100	> 100 µM		> 100	> 100	> 100 µM	> 100										
CC/C(=C(/CC)c1ccc(O)cc1)c1ccc(O)cc1	7	16.8	66.4	25.5	36 µM		17.9	15.7	20.9 µM		2.72 µM	3.89 µM	10.6 µM	14.6	4.57	5.16 µM	4.89			5.29 µM
c1cnc2nc3n(c2c1)CSC3	> 100	> 100	> 100		> 100 µM	> 100 µM	> 100	> 100	> 100 µM	> 100										
Cc1ccnc(NC(c2ccccc2)c2ccc3cccnc3c2O)c1 (centres undefined)	14	87.9	> 100	> 100	44.6 µM	> 100 µM		29.2	96.2 µM	> 100	2.79 µM	4.42 µM	6.28 µM	4.48	3.09		4.41	2.43 µM	8.19	2.53 µM
NCCCCCCCCCn1c2c(c3ccccc3c1=O)C(=O)c1ccccc1-2	18.8	18.1	40.4	22.6		> 50 µM	27.1	18	16.2 µM	30.8	9.46 µM	9.35 µM	9.27 µM		9.67	8.5 µM	6.84	4.14 µM	10.4	4.1 µM

Reference: PubChem BioAssay (NCI)
